Values joined by “and” are separate entries in the source; they are usually repeats but may differ in a detail not shown here. Equal entries are not always repeated. Structures can show the parent of a compound that is named as a salt. Where two headings read alike, the source gives them in different places.

Experimental findings from patent publication US20200325543A1, “DIAGNOSTIC METHOD” (TOLREMO THERAPEUTICS AG, priority 2017, published 2020) are described below.

The subject of assay [1] is SOX2. Briefly: SOX2 levels by Western blot in A375-P cells. It is filed as cell-based. To be noted: 1 μM PLX4720, 0.5 μM AZD6244 or both, indicated times, versus 0.01% DMSO. As for the experimental part: (A) A375-P cells were treated with PLX4720 (BRAFi) or DMSO for 6 h, RNA was isolated and RNA-Seq was performed. […] Differentially expressed genes (DEGs) selected for pathway analysis are represented by red and blue dots depending on the direction of the transcriptional change (red genes are induced upon PLX4720, blue genes are repressed upon PLX4720). (B) Bar graphs showing the five top pathways with significant enrichment of the analyzed DEGs. Longer bars indicate stronger significance. (C) Top deregulated genes upon treatment with PLX4720 (left column). Top genes induced and repressed by PLX4720 are shown in separate lists. (D) Indicated cell lines were treated with 1 μM PLX4720 or 0.01% DMSO (0 h) for the indicated times and the expressional changes of selected genes associated with stemness/EMT were confirmed by qPCR. […] As key player in the sternness signature, SOX2 levels were assessed. […] (F) A375-P cells were treated with 1 μM PLX4720, 0.5 μM AZD6244 (MEK1/2 inhibitor) or 0.01% DMSO for the indicated times and SOX2 levels were assessed by Western blot analysis. […] (G) A375-P cells were treated with 1 μM PLX4720 (BRAFi), 0.5 μM AZD6244 (MEKi), a combination of both drugs or 0.01% DMSO for the indicated times and SOX2 levels were assessed by Western blot analysis. […] For all Western blots, individual time points were assessed in at least two independent experiments. […]

In assay [2] the test system is genes associated with stemness/EMT. Briefly: RNA-Seq / qPCR of genes associated with stemness/EMT in melanoma cells. Type of assay: cell-based. To be noted: A375-P cells, 1 μM PLX4720, 0.5 μM AZD6244 or both, 24 h, versus 0.01% DMSO.
Experimental: Data shown represent mean of independent biological triplicates ±SEM. (E) Western blot analysis of the same experiment as shown in (D). […] P-ERK1/2 levels served as positive treatment controls. Total ERK1/2 levels served as loading control. (F) A375-P cells were treated with 1 μM PLX4720, 0.5 μM AZD6244 (MEK1/2 inhibitor) or 0.01% DMSO for the indicated times and SOX2 levels were assessed by Western blot analysis. […] (G) A375-P cells were treated with 1 μM PLX4720 (BRAFi), 0.5 μM AZD6244 (MEKi), a combination of both drugs or 0.01% DMSO for the indicated times and SOX2 levels were assessed by Western blot analysis. […] For all Western blots, individual time points were assessed in at least two independent experiments. Representative data is shown.
In the next assay the test system is S6K and BAD. Briefly: Survival signaling by Western blot in A375-P/pTRIPZ cells. To be noted: A375-P/pTRIPZ-control or -SOX2 cells, PLX4720 48 h. It is filed as cell-based. On the procedure: (A) A375-P cells were transfected with 100 nM siRNA targeting SOX2 or a negative control siRNA. Cells were then treated with PLX4720 (BRAFi) or DMSO for 48 h. 2 h before harvesting, cells were pulsed with 3 uM EdU to label cycling cells. EdU-positive cells were detected using flow cytometry. Note that SOX2 knockdown has no effect on cell proliferation when BRAF is active (DMSO) but reduces the pool of drug-tolerant, cycling cells in the BRAFi condition. Representative data is shown. (B) Quantification of experiment (A). For each condition, percentage of cycling cells upon siRNA knockdown of SOX2 was normalized to the negative control siRNA. Data shown represent mean of independent biological triplicates ±SEM. (C) A375-P cells stably transduced with pTRIPZ-SOX2 vector were treated with the indicated concentrations of doxycycline for three days or with 1 μM PLX4720 (PLX) for 24 h. SOX2 overexpression was confirmed by Western blot analysis. Lamin A served as loading control. Individual concentrations were assessed in at least two independent experiments. Representative results are shown. […] EdU-positive cells were detected using flow cytometry. […] Cell viability was assessed by PrestoBlue assay and IC50 values were calculated. […] Survival signaling was assessed by Western blot. […]

The subject of assay [3] is SOX2. Briefly: Screen of a library of FDA-approved drugs for SOX2 antibody staining in A375 cells treated with PLX4720 and AZD6244. To be noted: for cor. loess: normalized and geometry-corrected (loess) signal; for norm: signal after plate normalization.
[4] abbreviates: A375 cells, 5 uM test drug with 1 uM PLX4720 and 0.5 uM AZD6244, 24 h.
The mark [5] stands for this setting: A375 cells, 5 uM test drug with 1 uM PLX4720 and 0.5 uM AZD6244, 24 h, raw signal (ratio of FL2 SOX2 antibody and FL3 nuclear staining), screen run in duplicate.
[6] abbreviates: Z-test against negative controls (DMSO), single dose 5 uM.

For `Cn1cnc2c(F)c(Nc3ccc(Br)cc3Cl)c(C(=O)NOCCO)cc21` [AZD6244], the “SOX2 levels (Western blot)” value in the assay with SOX2 [1] is “induce similar SOX2 levels”. The “expressional changes of selected genes associated with stemness/EMT (qPCR)” value in assay [2] was “comparable effects on transcript levels”.

`CCCS(=O)(=O)Nc1ccc(F)c(C(=O)c2c[nH]c3ncc(Cl)cc23)c1F` [PLX4720]: the “SOX2 levels (Western blot)” value with SOX2 [1] is “induce similar SOX2 levels”. Also, the “expressional changes of selected genes associated with stemness/EMT (qPCR)” value in assay [2] is recorded as “comparable effects on transcript levels”. Moreover, in the assay on S6K and BAD, the “Survival signaling via S6K and BAD (Western blot)” value is listed as “repressed”.

As for `CCN(CC)CCNC(=O)c1c(C)[nH]c(/C=C2\C(=O)Nc3ccc(F)cc32)c1C` [Sunitinib], in the assay on SOX2 [3] (setting [4]), the cor. loess turned out to be 0.5385 and the norm was found to be 0.514. Besides, the raw in the assay on SOX2 [3] (setting [5]) came out at 0.9775. The molecule further registered a z with SOX2 [3] (setting [6]) of 5.758.

In the assay on SOX2 [3] (setting [4]), `[H]/N=C(/NCCCCC)N/N=C/c1c[nH]c2ccc(OC)cc12` [TEGASEROD MALEATE] gave a cor. loess of 0.2864 and a norm of 0.2748. Further, the raw in the assay on SOX2 [3] (setting [5]) is recorded as 0.9849. Further, the z with SOX2 [3] (setting [6]) came to 3.897.

`COc1cc([C@@H]2c3cc4c(cc3[C@@H](O[C@@H]3O[C@@H]5CO[C@@H](c6cccs6)O[C@H]5[C@H](O)[C@H]3O)[C@H]3COC(=O)[C@H]23)OCO4)cc(OC)c1O` [TENIPOSIDE]: in the assay on SOX2 [3] (setting [4]), the cor. loess came to 0.6446 and the norm is given as 0.8759. For the same molecule, the raw with SOX2 [3] (setting [5]) was 0.9667. This molecule came in with a z in the assay with SOX2 [3] (setting [6]) of 8.769.

`CC(C)(C)c1ccc(C(O)CCCN2CCC(C(O)(c3ccccc3)c3ccccc3)CC2)cc1` (centres unmarked) [TERFENADINE]: in the assay on SOX2 [3] (setting [4]), the cor. loess came to 0.2601 and the norm is 0.5459. Also, in the assay on SOX2 [3] (setting [6]), the z is 3.539.

In the assay on SOX2 [3] (setting [4]), `Cc1cnc(Nc2ccc(OCCN3CCCC3)cc2)nc1Nc1cccc(S(=O)(=O)NC(C)(C)C)c1` [TG101348 (SAR302503)] displayed a cor. loess of 1.471 and a norm of 1.142. The raw in the assay with SOX2 [3] (setting [5]) is given as 0.9608. In addition, in the assay with SOX2 [3] (setting [6]), the z is 5.665.

Take `C[CH2][Hg][S]c1ccccc1C(=O)[O-].[Na+]` [THIMEROSAL]: the raw with SOX2 [3] was 0.9726 and 0.8663.

In the assay with SOX2 [3] (setting [4]), `Cc1cc2nc3ccc(N(C)C)cc3[s+]c2cc1N` [TOLONIUM CHLORIDE] gave a cor. loess of 0.7082 and a norm of 0.6829. Besides, the raw with SOX2 [3] (setting [5]) is recorded as 0.971. The molecule also showed a z with SOX2 [3] (setting [6]) of 7.851.

In the assay with SOX2 [3] (setting [4]), `CC(=O)OCC(=O)[C@@]1(O)[C@H](OC(C)=O)C[C@H]2[C@@H]3CCC4=CC(=O)C=C[C@]4(C)[C@@]3(F)[C@@H](O)C[C@@]21C` [TRIAMCINOLONE DIACETATE] had a cor. loess of 0.3964 and a norm of 0.4506. The raw with SOX2 [3] (setting [5]) is 0.9794. The molecule also yielded a z in the assay on SOX2 [3] (setting [6]) of 4.238.

Turning to `C[C@]12C=CC(=O)C=C1CC[C@H]1[C@@H]3C[C@@H](O)[C@](O)(C(=O)CO)[C@@]3(C)C[C@H](O)[C@@]12F` [TRIAMCINOLONE], in the assay with SOX2 [3] (setting [4]), the cor. loess amounted to 0.4006 and the norm is reported as 0.3941. In addition, in the assay on SOX2 [3] (setting [5]), the raw was determined as 0.9821. Moreover, the z with SOX2 [3] (setting [6]) amounted to 3.438.

Take `Oc1cc(Cl)ccc1Oc1ccc(Cl)cc1Cl` [TRICLOSAN]: in the assay on SOX2 [3] (setting [4]), the cor. loess was 0.531 and the norm was determined as 0.5438. In addition, the raw in the assay with SOX2 [3] (setting [5]) is given as 0.9753. The molecule further returned a z in the assay on SOX2 [3] (setting [6]) of 3.141.

Regarding `O=c1[nH]c(=O)n([C@H]2C[C@H](O)[C@@H](CO)O2)cc1C(F)(F)F` [TRIFLURIDINE], in the assay on SOX2 [3] (setting [4]), the cor. loess is listed as 0.4387 and the norm is 0.4485. In addition, the raw in the assay on SOX2 [3] (setting [5]) turned out to be 0.9796. The z in the assay with SOX2 [3] (setting [6]) is 5.969.

In the assay on SOX2 [3] (setting [4]), `COc1ccc2cc1Oc1ccc(cc1)C[C@H]1c3cc(c(OC)cc3CCN1C)Oc1c(OC)c(OC)cc3c1[C@H](C2)N(C)CC3` [Tetrandrine] yielded a cor. loess of 1.018 and a norm of 1.018. Also, the raw in the assay on SOX2 [3] (setting [5]) is on record as 0.9619. In the assay with SOX2 [3] (setting [6]), this molecule gave a z of 7.2.

Take `O=C(CCCCCCC(=O)Nc1ccccc1)NO` [VORINOSTAT]: in the assay on SOX2 [3] (setting [4]), the cor. loess is 0.9868 and the norm was found to be 0.984. Also, the raw with SOX2 [3] (setting [5]) came to 0.9634. In the assay with SOX2 [3] (setting [6]), this molecule returned a z of 13.43.

Take `Cc1ccc(-c2nc3ccc(C)cn3c2CC(=O)N(C)C)cc1` [ZOLPIDEM]: in the assay with SOX2 [3] (setting [4]), the cor. loess came to 0.2522 and the norm is recorded as 0.4412. The raw in the assay on SOX2 [3] (setting [5]) worked out at 0.9798. The same molecule had a z in the assay on SOX2 [3] (setting [6]) of 3.432.

In the case of “ABAMECTIN [ABAMECTIN (avermectin B1a shown)]”, in the assay with SOX2 [3] (setting [4]), the cor. loess was determined as 0.4606 and the norm is reported as 0.5009. The raw in the assay with SOX2 [3] (setting [5]) is on record as 0.9779. In the assay on SOX2 [3] (setting [6]), this molecule gave a z of 4.925.

Turning to Aprotinin, in the assay on SOX2 [3] (setting [4]), the cor. loess is 1.14 and the norm is reported as 0.9994. Further, the raw in the assay with SOX2 [3] (setting [5]) is 0.9662. The molecule also came in with a z in the assay with SOX2 [3] (setting [6]) of 4.093.

Regarding “GRAMICIDIN [GRAMICIDIN (gramicidin A shown)]”, the z with SOX2 [3] was 4.938. Besides, in the assay with SOX2 [3] (setting [4]), the cor. loess was found to be 0.5992 and the norm was found to be 0.7289. In the assay with SOX2 [3] (setting [5]), the raw came to 0.9705.

The molecule HYDROCORTISONE HEMISUCCINATE displayed a z with SOX2 [3] of 3.809. Moreover, in the assay on SOX2 [3] (setting [4]), the cor. loess was determined as 0.4622 and the norm was 0.507.

In the assay with SOX2 [3] (setting [4]), IVERMECTIN displayed a cor. loess of 0.6358 and a norm of 0.6393. In the assay on SOX2 [3] (setting [5]), the raw is listed as 0.9726. Also, in the assay on SOX2 [3] (setting [6]), the z is 3.761.

As for MONENSIN SODIUM, in the assay on SOX2 [3] (setting [4]), the cor. loess came out at 0.5359 and the norm was 0.5968. In addition, in the assay on SOX2 [3] (setting [5]), the raw is recorded as 0.9761. This molecule had a z with SOX2 [3] (setting [6]) of 4.599.
